Test results reported in publication PMC8750417, “Intracellular Amplifiers of Reactive Oxygen Species Affecting Mitochondria as Radiosensitizers” (Cancers, 2021).

Columns and labels:
[1] = system: human ovarian carcinoma, Burkitt’s lymphoma, pancreatic carcinoma and T-cell leukemia cells; experiment: Anticancer activity, summary over four cancer cell lines; assay type: cell-based; settings: read-out: IC50 values, range over cell lines
Method: Determination of viability of cells in the presence of prodrugs and controls A2780 and BL-2 cells The medium was removed, and the cells were washed two times with DPBS, trypsinated, and resuspended in RPMI 1640 medium (A2780) supplemented with 5% FBS (for 24 h and 48 h assay) or 10% FBS (for 96 h assay) , 1% L-glutamine, and 1% penicillin/streptomycin.
A2780 cells: This suspension was spread in the wells of a 96 -well microtiter plate (25000 cells for A2780 per well per 100 μL) and left standing at 37 °C in the chamber filled with CO2 (5%) for overnight. […] Afterward, the intensity of the absorbance at 590 nm was measured.
MTT is converted in live cells to blue dye with the absorbance maximum λ max at 590 nm.
The absorbance at 690 nm was taken as a baseline value. The baseline corrected absorbance at 590 nm (A(590 nm) − A(690 nm)) was applied to calculate the relative number of viable cells. […]
AsPC1 cells The cells (20.000/well) were seeded in a 12-well plate and incubated for 24 h. […] Viable cells were determined based on the morphological parameters by using flow cytometry (Table S4). […]
Jurkat cells The cells were counted in MUSE Cell Analyzer using MUSE® Count &Viability Assay Kit (Merck-Millipore, Billerica, MA, USA) and adjusted to a density of 1.0 x 10^5/ml in RPMI 1640 medium (with 10% FCS and 1% glutamine). […]

A2780 cells = system: A2780 cells; parameters: method as in PMID 30035345; settings: relative to 4-(N-ferrocenyl-N-benzylaminocarbonyloxymethyl)-phenylboronic acid pinacol ester; cited from earlier work

| SMILES | IC50 [1] [µM] | efficacy of cellular uptake relative to reference NAAF prodrug (A2780 cells) |
| --- | --- | --- |
| CC1(C)OB(c2ccc(COC(=O)N(Cc3cn(Cc4ccc(Cn5cc(Cc6ccccc6)nn5)cc4)nn3)[c-]3cccc3)cc2)OC1(C)C.[Fe+2].c1cc[cH-]c1 [2c] | 5 to 7.1 |  |
| CCOC(=O)CCCCCn1cc(CN(C(=O)OCc2ccc(B3OC(C)(C)C(C)(C)O3)cc2)[c-]2cccc2)nn1.[Fe+2].c1cc[cH-]c1 [compound 1] |  | ca. 50% |
